In patent US20230053688A1, “METHODS TO ALTER LATENCY IN EBV+ MALIGNANCIES” (Cornell University, priority 2020, published 2023):
Counter-ions that a name gives are not always drawn. Like-named read-outs stand apart in the source and are kept apart here.

Tested on: LMP1 expression in Kem I cells
Test: microbe, parasite or virus in culture
Type: cell-based, EBV
Conditions: for Average LMP1 Fold Increase / Replicate 1-LMP1 Fold Increase / Replicate 2-LMP1 Fold Increase: Kem I cells, 48 hours; for fold induction at 2.5 µM / fold induction at 1 µM: human gammaherpesvirus 4, 48 h
[1] = 2.5 uM, average of replicates 1 and 2
[2] = 2.5 uM, fold change in LMP1 transcript vs vehicle
[3] = read-out: Average LMP1 Fold Increase, Kem I cells, 2.5 uM, 48 hours, average of replicates 1 and 2
[4] = read-out: Replicate 1-LMP1 Fold Increase, Kem I cells, 2.5 uM, 48 hours, fold change in LMP1 transcript vs vehicle
[5] = read-out: Replicate 2-LMP1 Fold Increase, Kem I cells, 2.5 uM, 48 hours, fold change in LMP1 transcript vs vehicle
[6] = read-out: Average LMP1 Fold Increase, Kem I cells, dose 2.5 uM, 48 hours, LMP1 transcript by in-well qRT-PCR, average of the two replicates
[7] = read-out: Replicate 1-LMP1 Fold Increase, Kem I cells, dose 2.5 uM, 48 hours, LMP1 transcript by in-well qRT-PCR, screen replicate 1
[8] = read-out: Replicate 2-LMP1 Fold Increase, Kem I cells, dose 2.5 uM, 48 hours, LMP1 transcript by in-well qRT-PCR, screen replicate 2
[9] = dose 2.5 uM, LMP1 transcript by in-well qRT-PCR, average of the two replicates
[10] = dose 2.5 uM, LMP1 transcript by in-well qRT-PCR, screen replicate 1
[11] = dose 2.5 uM, LMP1 transcript by in-well qRT-PCR, screen replicate 2

Compound	Average LMP1 Fold Increase [1]	Replicate 1-LMP1 Fold Increase [2]	Replicate 2-LMP1 Fold Increase [2]	fold induction at 2.5 µM [3]	fold induction at 2.5 µM [4]	fold induction at 2.5 µM [5]	further results
COc1cc(CCc2cc(NC(=O)c3ccc(N4CC(C)NC(C)C4)cc3)n[nH]2)cc(OC)c1 (stereo not drawn) [AZD4547]	0.13	0.11	0.15	–	–	–	–
CC(C)(C)c1cc(NC(=O)Nc2ccc(-c3cn4c(n3)sc3cc(OCCN5CCOCC5)ccc34)cc2)no1 [Quizartinib (AC220)]	0.93	0.71	1.15	–	–	–	–
O=c1cc(-c2ccc(O)cc2)oc2cc(O)cc(O)c12 [Apigenin]	–	–	–	0.58	0.69	0.47	–
CN(C)CCc1c[nH]c2ccc(Cn3cncn3)cc12 [Rizatriptan Benzoate]	–	–	–	0.15	0.1	0.2	–
Cc1cccc(-c2nn3c(c2-c2ccnc4ccc(C(N)=O)cc24)CCC3)n1 [LY2157299]	0.30	0.30	0.30	–	–	–	–
CC12CC3CC(C)(C1)CC(N)(C3)C2 [Memantine HCl]	–	–	–	0.42	0.55	0.3	–
CC(C)c1c(C(=O)Nc2ccccc2)c(-c2ccccc2)c(-c2ccc(F)cc2)n1CC[C@@H](O)C[C@@H](O)CC(=O)[O-].CC(C)c1c(C(=O)Nc2ccccc2)c(-c2ccccc2)c(-c2ccc(F)cc2)n1CC[C@@H](O)C[C@@H](O)CC(=O)[O-].[Ca+2] [Atorvastatin Calcium]	0.09	0.05	0.14	–	–	–	–
O=c1[nH]c2ccc(Cl)cc2c(N[C@@H]2CN3CCC2CC3)c1-c1nc2ccccc2[nH]1 [CHIR-124]	68.46	105.57	31.35	–	–	–	–
Nc1nc(OCc2cc(Br)cs2)c2[nH]cnc2n1 [Lomeguatrib]	–	–	–	1.09	0.57	1.61	–
N#Cc1c(O)c2c(-c3ccc(-c4ccccc4O)cc3)csc2[nH]c1=O [A-769662]	0.40	0.41	0.39	–	–	–	–
CCCCCCCCc1ccc(CCC(N)(CO)CO)cc1.Cl [Fingolimod (FTY720) HCl]	0.69	0.33	1.06	–	–	–	–
O=C(NNc1ccccc1)c1ccncc1 [PluriSln #1 (NSC 14613)]	1.32	1.70	0.94	–	–	–	–
Cc1cc(OCCCS(C)(=O)=O)cc(C)c1-c1cccc(COc2ccc3c(c2)OC[C@H]3CC(=O)O)c1 [TAK-875]	–	–	–	–	–	–	fold induction at 2.5 µM [6]: 0.57; fold induction at 2.5 µM [7]: 0.55; fold induction at 2.5 µM [8]: 0.59
CC(C)(C)NC(=O)[C@H]1CC[C@H]2[C@@H]3CC[C@H]4NC(=O)C=C[C@]4(C)[C@H]3CC[C@]12C [Finasteride]	–	–	–	0.66	0.51	0.81	–
C=CCNC1=C2C[C@@H](C)C[C@H](OC)[C@H](O)[C@@H](C)/C=C(\C)[C@H](OC(N)=O)[C@@H](OC)/C=C\C=C(/C)C(=O)NC(=CC1=O)C2=O [17-AAG (Tanespimycin)]	0.45	0.36	0.55	–	–	–	–
C[C@H](CS)C(=O)N1CCC[C@H]1C(=O)O [Captopril]	–	–	–	0.62	0.71	0.52	–
Cc1cc(C)nc(NS(=O)(=O)c2ccc(NC(=S)NC(=O)COc3ccc(Br)cc3Cl)cc2)n1 [ZCL278]	–	–	–	–	–	–	Average LMP1 Fold Increase [9]: 0.85 fold; Replicate 1-LMP1 Fold Increase [10]: 1.26 fold; Replicate 2-LMP1 Fold Increase [11]: 0.44 fold
C[C@H](Oc1cc(-c2cnn(C3CCNCC3)c2)cnc1N)c1c(Cl)ccc(F)c1Cl [(S)-crizotinib]	0.70	0.57	0.84	–	–	–	–
C[C@@H](Oc1cc(-n2cnc3ccc(CN4CCN(C)CC4)cc32)sc1C(N)=O)c1ccccc1C(F)(F)F [GSK461364]	1.62	1.73	1.50	–	–	–	–
COc1c(O)cc2c(c1O)[C@@H]1O[C@H](CO)[C@@H](O)[C@H](O)[C@H]1OC2=O [Bergenin]	–	–	–	0.86	0.65	1.07	–
CCC(=O)Nc1cccc(Oc2nc(Nc3ccc(N4CCN(C)CC4)cc3OC)ncc2Cl)c1 [WZ4003]	–	–	–	–	–	–	Average LMP1 Fold Increase [9]: 0.72 fold; Replicate 1-LMP1 Fold Increase [10]: 0.79 fold; Replicate 2-LMP1 Fold Increase [11]: 0.64 fold

Compound	Average LMP1 Fold Increase [1]	Replicate 1-LMP1 Fold Increase [2]	Replicate 2-LMP1 Fold Increase [2]	fold induction at 2.5 µM [3]	fold induction at 2.5 µM [4]	fold induction at 2.5 µM [5]	further results
CN(C)CCCCC(=O)Nc1ccc(NC(=S)NC(=O)c2ccc(C(C)(C)C)cc2)cc1 [Tenovin-6]	–	–	–	–	–	–	Average LMP1 Fold Increase [9]: 1.79 fold; Replicate 1-LMP1 Fold Increase [10]: 1.55 fold; Replicate 2-LMP1 Fold Increase [11]: 2.03 fold
c1ccc(CC2=NCCN2)cc1 [Tolazoline HCl]	–	–	–	–	–	–	fold induction at 2.5 µM [6]: 0.26; fold induction at 2.5 µM [7]: 0.26; fold induction at 2.5 µM [8]: 0.27
CCO[C@@H]1OC(=O)C[C@@H]1NC(=O)[C@@H]1CCCN1C(=O)[C@@H](NC(=O)c1ccc(N)c(Cl)c1)C(C)(C)C [VX-765]	–	–	–	–	–	–	fold induction at 2.5 µM [6]: 0.41; fold induction at 2.5 µM [7]: 0.45; fold induction at 2.5 µM [8]: 0.37
CC(=O)c1c(C)c2cnc(Nc3ccc(N4CCNCC4)cn3)nc2n(C2CCCC2)c1=O.Cl [Palbociclib (PD-0332991) HCl]	1.34	0.77	1.91	–	–	–	–
Cc1cc(NC(=O)Nc2ccc(N(C)C)cc2)c2cc(F)cc(F)c2n1 [SB408124]	0.67	0.81	0.53	–	–	–	–
CCCCNc1ncc(-c2ccc(CN3CCOCC3)cn2)c(NC2CCC(O)CC2)n1 (stereo not drawn) [UNC2250]	–	–	–	–	–	–	Average LMP1 Fold Increase [9]: 0.41 fold; Replicate 1-LMP1 Fold Increase [10]: 0.54 fold; Replicate 2-LMP1 Fold Increase [11]: 0.29 fold
Oc1ncnc2[nH]ncc12 [Allopurinol]	–	–	–	0.11	0.09	0.13	–
COc1ccc2cccc(CCNC(C)=O)c2c1 [Agomelatine]	–	–	–	0.43	0.34	0.52	–
CC(NC(=O)c1ccccc1/N=C/c1c(O)ccc2ccccc12)c1ccccc1 (stereo not drawn) [Sirtinol]	–	–	–	0.6	0.28	0.92	–
CC(=O)Nc1nc2c(Oc3cc(-c4ccc(C(F)(F)F)cc4)ncn3)cccc2s1 [AMG-517]	–	–	–	0.52	0.56	0.48	–
O=C(Oc1cc(S(=O)(=O)c2ccccc2)ccc1[N+](=O)[O-])c1ccc(Cl)cc1 [BTB06584]	1.22	1.23	1.20	–	–	–	–
COc1cc2c(cc1OC)CN(CCc1ccc(NC(=O)c3cc(OC)c(OC)cc3NC(=O)c3cnc4ccccc4c3)cc1)CC2 [Tariquidar]	–	–	–	–	–	–	fold induction at 2.5 µM [6]: 0.71; fold induction at 2.5 µM [7]: 0.56; fold induction at 2.5 µM [8]: 0.87
Nc1cccc2c1CN(C1CCC(=O)NC1=O)C2=O (stereo not drawn) [Lenalidomide (CC-5013)]	1.74	1.57	1.91	–	–	–	–
OG-L002	1.15	1.03	1.27	–	–	–	–
O=C(Nc1cc(C(F)(F)F)cc(C(F)(F)F)c1)c1cc(Cl)ccc1O [IMD 0354]	–	–	–	0.62	0.74	0.5	–
N#CC1(c2ccc(NC(=O)c3cccnc3NCc3ccncc3)cc2)CCCC1 [Apatinib]	–	–	–	0.87	1.23	0.5	–
CCCS(=O)(=O)Nc1ccc(F)c(C(=O)c2c[nH]c3ncc(-c4ccc(Cl)cc4)cc23)c1F [Vemurafenib (PLX4032, RG7204)]	–	–	–	–	–	–	Average LMP1 Fold Increase [9]: 0.41 fold; Replicate 1-LMP1 Fold Increase [10]: 0.33 fold; Replicate 2-LMP1 Fold Increase [11]: 0.50 fold
COc1cccc2c1C(=O)c1c(O)c3c(c(O)c1C2=O)C[C@@](O)(C(=O)CO)C[C@@H]3O[C@H]1C[C@H](N)[C@H](O)[C@H](C)O1 [Doxorubicin]	–	–	–	–	–	–	fold induction at 1 µM (read-out: Average LMP1 Fold Increase, Kem I cells, 1 uM, 48 hours, average of replicates 1 and 2): 47; fold induction at 1 µM (read-out: Replicate 1-LMP1 Fold Increase, Kem I cells, 1 uM, 48 hours, fold change in LMP1 transcript vs vehicle): 39.2; fold induction at 1 µM (read-out: Replicate 2-LMP1 Fold Increase, Kem I cells, 1 uM, 48 hours, fold change in LMP1 transcript vs vehicle): 54.8
CN1CCC(CNc2ccc3ncc(-c4cccc(OC(F)(F)F)c4)n3n2)CC1 [SGI-1776 free base]	1.26	1.94	0.57	–	–	–	–
CC(C)(F)C[C@H](N[C@@H](c1ccc(-c2ccc(S(C)(=O)=O)cc2)cc1)C(F)(F)F)C(=O)NC1(C#N)CC1 [Odanacatib (MK-0822)]	0.56	0.58	0.54	–	–	–	–
